Reference: patent US12662714B2, “Method for separation of adjacent lanthanide elements” (UT-Battelle, LLC, priority 2022, dated 2026)

Assays:
[1] = Solvent extraction of Lns, distribution ratio of La; details: 13 mM Ligand 2 used instead of ligand 1; 0.1 M DGA; 1 M HNO3; 1 h
[2] = Solvent extraction of Lns, separation factor Gd/La; details: for SFGd/La separation factor: 0.1 M DGA, 1 M HNO3, 1 h
Procedure: (§1) General procedure: a 500 microliter (μL) aqueous phase consisting of 7 mM Ln(III) (0.5 mM of each Ln(III)) in 1 M HNO3 without or with aqBLPhen 1 (3, 13, or 25 mM) was contacted with an equal volume of organic phase containing 0.1 M DGA (3, 4, or 5). The two phases were contacted in a 1:1 ratio of organic/aqueous by end-over-end rotation in individual 1.8 mL capacity snap-top Eppendorf tubes using a rotating wheel in an airbox set at 25.5±0.5° C. Contacts were performed in triplicate with a contact time of 1 hour. The samples were centrifuged at 1811 g for 2 min at room temperature to separate the phases. Each triplicate was then sub-sampled, using a 300 μL aliquot of the aqueous phase transferred to individual polypropylene tubes and diluted with 2% HNO3 for analysis using ICP-MS or ICP-OES. Two samples of the initial lanthanide solution were similarly prepared.
(§2) The ability of 1 and DGA to separate Lns was evaluated using a two-component, immiscible solvent system: nitric acid (aqueous phase containing 1) and n-dodecane with 10 vol % 1-octanol (oil phase containing DGA). The amount of Ln partitioned from the aqueous phase into the oil phase was measured using inductively coupled plasma optical emission spectroscopy or mass spectrometry. The Ln concentration in each phase was then used to calculate the separation efficiency.
(§3) The percentage of Lns in the aqueous and the oil phases is presented in FIGS. 1a-1i. for each DGA in the absence and presence of the aqueous complexant 1 (E=([Ln1]/[Ln1]0)×100%). The distribution ratios (i.e., D=[Ln1]org/[Ln1]aq) for select Lns are listed in Table 1, which also include selectivities (i.e., SFLn1/Ln2=DLn1/DLn2), for several Ln pairs. An efficient separation of Lns was achieved when DLn1>1 and DLn2<1 or ELn1>50% and ELn2<50%. […] Neither of the three DGAs can separate Lns in a single extraction stage.

[3] = Solvent extraction of Lns, separation factor Dy/Nd; details: 13 mM Ligand 2 used instead of ligand 1; 0.1 M DGA; 1 M HNO3; 1 h
[4] = Solvent extraction of Lns, distribution ratio of Gd; details: 0.1 M DGA, 1 M HNO3, 1 h
Procedure: as §1, §2, §3

[5] = Extraction of 14 Lns from aqueous phase into oil phase; details: 0.1 M DGA alone; 14 Lns 0.5 mM each; 1 M HNO3
Procedure: as §1, §2, §3

[6] = Optimized separation of adjacent Ln pair Nd-Pr with 1 and Ligand 3
Procedure: The synergistic use of 1 and Ligand 3 was further optimized to maximize the separation of one adjacent Ln pair Nd—Pr using the percentage of Ln extracted as a guide. The separation of Nd and Pr reached equilibrium in less than 1 hour, and the D values for both increased at higher HNO3 and Ligand 3 concentrations (FIGS. 3b and 3c). Ligand 3, being a neutral ligand, requires co-extraction of counterions (i.e., three NO3^−) with Ln; thus, the extraction of Lns with DGA is favored at high nitrate concentration, and the process is reversed at low anion concentration.
The highest selectivity of 4.9±0.2 for Nd—Pr pair was obtained when separating 2.5 mM Nd and Pr, each using 13 mM of 1 in 1 M HNO3 with 0.1 M of Ligand 3 in the oil phase and equilibrating for 30 min at 25.5° C. Next, the recovery of Nd and Pr from each phase after extraction using the 1-Ligand 3-HNO3 system was investigated. […] The charged ligand (CO3^2−) outcompetes neutral ligand 1 in complexing with Ln ions; furthermore, the thermodynamics of the Ln2(CO3)3 formation is highly favorable due to high crystal lattice energy of the salt. The identity of the precipitate was confirmed using Fourier-transform infrared spectroscopy (FTIR), and the results are in good agreement with commercially available Pr and Nd carbonate salts. Ligand 1 remains in the aqueous solution that can be further recycled in the lanthanide separation process.

[7] = Solvent extraction of Lns, distribution ratio of Nd; details: 0.1 M DGA, 1 M HNO3, 1 h
Procedure: as §1, §2, §3

[8] = Solvent extraction of Lns, separation factor Sm/Nd; details: 0.1 M DGA, 1 M HNO3, 1 h
Procedure: as §1, §2, §3

[9] = Solvent extraction of Lns, separation factor Nd/Pr; details: 0.1 M DGA, 1 M HNO3, 1 h
Procedure: as §1, §2, §3

[10] = Solvent extraction of Lns, separation factor Tb/Gd; details: 0.1 M DGA, 1 M HNO3, 1 h
Procedure: as §1, §2, §3

[11] = Solvent extraction of Lns, distribution ratio of Sm; details: 0.1 M DGA, 1 M HNO3, 1 h
Procedure: as §1, §2, §3

[12] = Solvent extraction of Lns, separation factor Nd/Pr; details: 13 mM Ligand 2 used instead of ligand 1; 0.1 M DGA; 1 M HNO3; 1 h
[13] = Solvent extraction of Lns, distribution ratio of Nd; details: 13 mM Ligand 2 used instead of ligand 1; 0.1 M DGA; 1 M HNO3; 1 h
[14] = Solvent extraction of Lns, separation factor Gd/La; details: 13 mM Ligand 2 used instead of ligand 1; 0.1 M DGA; 1 M HNO3; 1 h
[15] = Solvent extraction of Lns, distribution ratio of La; details: 1 M HNO3, 1 h
Procedure: as §1, §2, §3

[16] = Solvent extraction of Lns, separation factor Sm/Nd; details: 13 mM Ligand 2 used instead of ligand 1; 0.1 M DGA; 1 M HNO3; 1 h
[17] = Solvent extraction of Lns, distribution ratio of Sm; details: 13 mM Ligand 2 used instead of ligand 1; 0.1 M DGA; 1 M HNO3; 1 h
[18] = Solvent extraction of Lns, distribution ratio of Gd; details: 13 mM Ligand 2 used instead of ligand 1; 0.1 M DGA; 1 M HNO3; 1 h
[19] = Solvent extraction of Lns, separation factor Dy/Nd; details: 0.1 M DGA, 1 M HNO3, 1 h
Procedure: as §1, §2, §3

## CCCCCCCCN(C)C(=O)COCC(=O)N(C)CCCCCCCC [Ligand 3, N,N′-dimethyl-N,N′-di(n-octyl)diglycolamide]
[1]
  DLa distribution ratio: 2.65
[2]; [1] 0 mM
  SFGd/La separation factor: 36
[2]; [1] 3 mM
  SFGd/La separation factor: 2010
[2]; [1] 13 mM
  SFGd/La separation factor: 1992
[2]; [1] 25 mM
  SFGd/La separation factor: 1512
[2]; combination of 1 and Ligand 3
  times higher selectivity for Gd over La than the TDdDGA-DOODA(C2) system: ~2 times
  times higher selectivity for Gd over La than the TODGA-DOODA(C2) system: 20 times
[3]
  SFDy/Nd separation factor: 60
[4]; [1] 0 mM
  DGd distribution ratio: 2531
[4]; [1] 3 mM
  DGd distribution ratio: 1192
[4]; [1] 13 mM
  DGd distribution ratio: 552
[4]; [1] 25 mM
  DGd distribution ratio: 346
[5]
  extraction of Lns from the aqueous phase into the oil phase: nearly quantitatively extracted all Lns
[6]; 2.5 mM Nd and Pr each, 13 mM of 1 in 1 M HNO3, 0.1 M Ligand 3 in oil phase, 30 min, 25.5° C.
  highest selectivity for Nd-Pr pair: 4.9±0.2
[6]; 1 and Ligand 3
  time for the separation of Nd and Pr to reach equilibrium: less than 1 hour
[6]; three consecutive contacts with an equal volume of deionized water
  recovery of Nd and Pr from the spent oil phase: Near-quantitative recovery
[7]; [1] 0 mM
  DNd distribution ratio: 558
[7]; [1] 3 mM
  DNd distribution ratio: 11.0
[7]; [1] 13 mM
  DNd distribution ratio: 10.7
[7]; [1] 25 mM
  DNd distribution ratio: 2.34
[8]; [1] 0 mM
  SFSm/Nd separation factor: 3.2
[8]; [1] 3 mM
  SFSm/Nd separation factor: 20
[8]; [1] 13 mM
  SFSm/Nd separation factor: 6.4
[8]; [1] 25 mM
  SFSm/Nd separation factor: 18
[9]; [1] 0 mM
  SFNd/Pr separation factor: 2.1
[9]; [1] 3 mM
  SFNd/Pr separation factor: 4.0
[9]; [1] 13 mM
  SFNd/Pr separation factor: 4.2
[9]; [1] 25 mM
  SFNd/Pr separation factor: 3.2
[10]; 13 mM Ligand 2 used instead of ligand 1
  SFTb/Gd separation factor: 1.6
[10]; [1] 0 mM
  SFTb/Gd separation factor: 1.1
[10]; [1] 3 mM
  SFTb/Gd separation factor: 2.0
[10]; [1] 13 mM
  SFTb/Gd separation factor: 3.0
[10]; [1] 25 mM
  SFTb/Gd separation factor: 3.0
[11]; [1] 0 mM
  DSm distribution ratio: 1795
[11]; [1] 3 mM
  DSm distribution ratio: 222
[11]; [1] 13 mM
  DSm distribution ratio: 68.1
[11]; [1] 25 mM
  DSm distribution ratio: 42.2
[12]
  SFNd/Pr separation factor: 2.3
[13]
  DNd distribution ratio: 21.4
[14]
  SFGd/La separation factor: 136
[15]; [1] 0 mM, 0.1 M DGA in n-dodecane with 10 vol % 1-octanol, 0.5 mM each Ln
  DLa distribution ratio: 71
[15]; [1] 3 mM, 0.1 M DGA
  DLa distribution ratio: 0.59
[15]; [1] 13 mM, 0.1 M DGA
  DLa distribution ratio: 0.28
[15]; [1] 25 mM, 0.1 M DGA
  DLa distribution ratio: 0.23
[16]
  SFSm/Nd separation factor: 7.6
[17]
  DSm distribution ratio: 163
[18]
  DGd distribution ratio: 360
[19]; [1] 0 mM
  SFDy/Nd separation factor: 4.7
[19]; [1] 3 mM
  SFDy/Nd separation factor: 352
[19]; [1] 13 mM
  SFDy/Nd separation factor: 451
[19]; [1] 25 mM
  SFDy/Nd separation factor: 1313
